Data as given in PMC7827406, “Structure–Activity Relationship (SAR) Study of Spautin-1 to Entail the Discovery of Novel NEK4 Inhibitors” (International Journal of Molecular Sciences, 2021).
Read-outs that look alike come from different tables or passages of the source.

How the values were obtained:
Assay in all cases: biochemical
Parameters in all cases: Eurofins KinaseProfiler full panel at Km ATP, residual kinase activity (%) relative to DMSO
AAK1(h) = AAK1(h) (Homo sapiens, UniProt Q2M2I8)
Summary of the method: (§1)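 Compounds screened at 10 µM in radiometric kinase activity assays at Km ATP, reported as remaining kinase activity (%). A KINOMEscan competition-binding screen at 10 µM measured DNA-tagged kinase retained on immobilized active-site ligand by qPCR.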

ALK1(h) = biological target: T1, ALK1(h) (Homo sapiens, UniProt P37023)
T1 construct: gene ACVRL1
Summary of the method: as §1

NEK11(h) = biological target: T2, NEK11(h) (Homo sapiens, UniProt Q8NG66)
T2 sequence (Q8NG66 1-645): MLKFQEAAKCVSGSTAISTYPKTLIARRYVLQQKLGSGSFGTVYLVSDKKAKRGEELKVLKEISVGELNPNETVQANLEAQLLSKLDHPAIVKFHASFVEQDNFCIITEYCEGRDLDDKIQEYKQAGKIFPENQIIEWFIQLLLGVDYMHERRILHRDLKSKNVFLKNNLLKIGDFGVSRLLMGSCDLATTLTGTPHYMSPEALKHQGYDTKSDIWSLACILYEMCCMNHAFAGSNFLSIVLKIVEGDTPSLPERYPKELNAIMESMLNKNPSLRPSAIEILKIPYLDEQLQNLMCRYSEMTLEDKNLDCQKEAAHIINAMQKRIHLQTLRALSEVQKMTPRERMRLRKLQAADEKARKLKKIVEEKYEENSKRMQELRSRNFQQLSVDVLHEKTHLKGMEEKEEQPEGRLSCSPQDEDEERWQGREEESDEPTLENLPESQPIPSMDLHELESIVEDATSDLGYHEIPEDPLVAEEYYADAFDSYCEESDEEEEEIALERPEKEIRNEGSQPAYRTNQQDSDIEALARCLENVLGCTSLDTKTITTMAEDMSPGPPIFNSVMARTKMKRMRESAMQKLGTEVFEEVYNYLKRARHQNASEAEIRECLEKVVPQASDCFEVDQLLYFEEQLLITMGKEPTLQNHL
Summary of the method: as §1

PDGFRα(h) = biological target: T3, PDGFRα(h) (Homo sapiens, UniProt P16234)
T3 construct: gene PDGFRA
Summary of the method: as §1

PKG1α(h) = biological target: T4, PKG1α(h) (Homo sapiens, UniProt Q13976)
T4 construct: gene PRKG1; isoform 1alpha
T4 sequence (Q13976 1-671): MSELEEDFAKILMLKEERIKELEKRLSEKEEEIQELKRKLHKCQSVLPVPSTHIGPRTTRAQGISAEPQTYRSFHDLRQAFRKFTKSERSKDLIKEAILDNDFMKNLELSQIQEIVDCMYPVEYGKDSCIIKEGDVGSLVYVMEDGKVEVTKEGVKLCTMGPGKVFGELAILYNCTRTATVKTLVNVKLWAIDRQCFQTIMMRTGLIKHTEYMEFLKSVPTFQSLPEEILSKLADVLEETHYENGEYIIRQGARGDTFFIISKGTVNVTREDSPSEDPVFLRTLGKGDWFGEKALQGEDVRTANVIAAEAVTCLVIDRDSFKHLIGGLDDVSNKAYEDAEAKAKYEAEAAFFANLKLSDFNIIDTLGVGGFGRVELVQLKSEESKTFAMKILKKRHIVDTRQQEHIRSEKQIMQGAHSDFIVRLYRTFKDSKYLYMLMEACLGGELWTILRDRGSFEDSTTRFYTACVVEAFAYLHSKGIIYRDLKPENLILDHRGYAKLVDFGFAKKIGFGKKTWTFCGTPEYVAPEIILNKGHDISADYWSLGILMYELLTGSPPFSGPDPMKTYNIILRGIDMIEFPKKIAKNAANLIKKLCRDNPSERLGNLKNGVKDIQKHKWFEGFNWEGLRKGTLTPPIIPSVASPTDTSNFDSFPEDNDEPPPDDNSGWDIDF
Summary of the method: as §1

Tie2(Y897S)(h) = biological target: T5, Tie2(Y897S)(h) (Homo sapiens, UniProt Q02763, Y897S)
T5 construct: gene TEK
Summary of the method: as §1

WNK2(h) = WNK2(h) (Homo sapiens, UniProt Q9Y3S1)
Summary of the method: as §1

[1] = read-out: Residual activity (%) Spautin-1 5aa
[2] = read-out: Residual activity (%) 5as
[3] = read-out: Residual activity (%) 5at
[4] = read-out: Residual activity (%) 5ay

T1 sequence (P37023 whole entry): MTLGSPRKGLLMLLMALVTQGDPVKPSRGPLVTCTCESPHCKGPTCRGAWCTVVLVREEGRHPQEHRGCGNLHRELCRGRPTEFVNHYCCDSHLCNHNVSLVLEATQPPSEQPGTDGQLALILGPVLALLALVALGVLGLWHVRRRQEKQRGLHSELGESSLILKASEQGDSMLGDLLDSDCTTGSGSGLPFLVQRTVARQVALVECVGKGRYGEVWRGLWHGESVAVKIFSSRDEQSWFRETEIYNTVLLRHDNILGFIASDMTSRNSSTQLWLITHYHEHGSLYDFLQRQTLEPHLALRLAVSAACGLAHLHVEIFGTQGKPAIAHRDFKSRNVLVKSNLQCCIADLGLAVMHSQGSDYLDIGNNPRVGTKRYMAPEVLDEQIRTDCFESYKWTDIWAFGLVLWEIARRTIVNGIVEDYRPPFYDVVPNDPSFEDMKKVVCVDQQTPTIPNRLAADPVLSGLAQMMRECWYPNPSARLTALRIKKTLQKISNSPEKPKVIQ
Chain of WNK2(h) (Q9Y3S1 whole entry): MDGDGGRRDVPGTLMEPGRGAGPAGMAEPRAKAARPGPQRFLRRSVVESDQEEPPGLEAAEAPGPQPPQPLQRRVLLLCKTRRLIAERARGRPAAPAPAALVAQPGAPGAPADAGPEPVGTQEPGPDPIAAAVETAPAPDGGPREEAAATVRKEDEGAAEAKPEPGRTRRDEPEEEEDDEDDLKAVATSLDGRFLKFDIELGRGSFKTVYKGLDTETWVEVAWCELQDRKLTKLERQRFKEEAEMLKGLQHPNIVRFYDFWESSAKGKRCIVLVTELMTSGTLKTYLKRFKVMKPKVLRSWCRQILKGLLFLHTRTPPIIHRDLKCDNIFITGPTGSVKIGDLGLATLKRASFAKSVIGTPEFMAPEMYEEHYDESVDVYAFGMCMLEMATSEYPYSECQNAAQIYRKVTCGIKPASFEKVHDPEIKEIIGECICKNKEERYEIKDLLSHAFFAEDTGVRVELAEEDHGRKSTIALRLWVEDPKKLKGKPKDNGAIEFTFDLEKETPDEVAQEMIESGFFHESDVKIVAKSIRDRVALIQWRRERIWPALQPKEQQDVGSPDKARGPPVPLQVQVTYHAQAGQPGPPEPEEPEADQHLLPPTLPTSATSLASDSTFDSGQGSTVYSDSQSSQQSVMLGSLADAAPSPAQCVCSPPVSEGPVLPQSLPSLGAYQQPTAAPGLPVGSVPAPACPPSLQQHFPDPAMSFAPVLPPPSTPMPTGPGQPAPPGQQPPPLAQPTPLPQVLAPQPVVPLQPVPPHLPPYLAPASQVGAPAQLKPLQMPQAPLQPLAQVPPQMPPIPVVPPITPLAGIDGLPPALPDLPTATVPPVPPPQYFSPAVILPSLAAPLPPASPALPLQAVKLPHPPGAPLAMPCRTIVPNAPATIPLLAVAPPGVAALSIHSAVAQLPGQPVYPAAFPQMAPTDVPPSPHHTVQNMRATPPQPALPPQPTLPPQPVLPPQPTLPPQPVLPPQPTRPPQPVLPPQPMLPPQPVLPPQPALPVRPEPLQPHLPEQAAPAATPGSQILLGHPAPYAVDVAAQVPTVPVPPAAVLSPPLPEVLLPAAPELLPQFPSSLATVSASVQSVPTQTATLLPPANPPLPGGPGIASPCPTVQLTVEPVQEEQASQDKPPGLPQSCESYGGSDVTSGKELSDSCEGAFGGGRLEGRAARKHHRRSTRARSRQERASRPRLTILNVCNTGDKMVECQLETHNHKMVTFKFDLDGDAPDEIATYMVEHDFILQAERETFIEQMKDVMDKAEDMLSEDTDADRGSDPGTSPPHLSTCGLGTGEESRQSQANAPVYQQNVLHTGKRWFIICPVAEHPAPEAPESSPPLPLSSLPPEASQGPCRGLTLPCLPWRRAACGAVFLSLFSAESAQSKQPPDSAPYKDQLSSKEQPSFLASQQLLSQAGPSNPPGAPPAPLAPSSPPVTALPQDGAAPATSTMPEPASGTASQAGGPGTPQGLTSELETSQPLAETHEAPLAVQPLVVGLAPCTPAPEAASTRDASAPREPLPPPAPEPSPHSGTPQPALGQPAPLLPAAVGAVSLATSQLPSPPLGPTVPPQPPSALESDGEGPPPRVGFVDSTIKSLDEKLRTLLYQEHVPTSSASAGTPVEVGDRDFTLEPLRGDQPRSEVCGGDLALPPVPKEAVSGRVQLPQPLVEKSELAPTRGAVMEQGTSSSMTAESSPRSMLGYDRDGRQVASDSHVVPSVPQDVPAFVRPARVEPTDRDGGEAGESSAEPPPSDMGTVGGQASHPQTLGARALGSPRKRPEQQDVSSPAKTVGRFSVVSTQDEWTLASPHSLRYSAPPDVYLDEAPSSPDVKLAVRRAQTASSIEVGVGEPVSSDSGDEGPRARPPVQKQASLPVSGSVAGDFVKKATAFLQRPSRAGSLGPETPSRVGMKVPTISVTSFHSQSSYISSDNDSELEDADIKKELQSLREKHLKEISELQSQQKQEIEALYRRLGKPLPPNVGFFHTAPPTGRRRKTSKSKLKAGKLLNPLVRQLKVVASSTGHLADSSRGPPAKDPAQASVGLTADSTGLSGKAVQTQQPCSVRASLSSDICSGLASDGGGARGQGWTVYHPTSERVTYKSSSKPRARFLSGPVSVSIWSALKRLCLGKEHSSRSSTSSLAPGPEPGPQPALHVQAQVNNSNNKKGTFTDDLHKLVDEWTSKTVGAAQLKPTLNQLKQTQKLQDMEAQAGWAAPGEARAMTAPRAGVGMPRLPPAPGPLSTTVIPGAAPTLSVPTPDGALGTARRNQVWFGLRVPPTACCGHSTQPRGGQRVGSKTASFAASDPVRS
Chain of AAK1(h) (Q2M2I8 whole entry): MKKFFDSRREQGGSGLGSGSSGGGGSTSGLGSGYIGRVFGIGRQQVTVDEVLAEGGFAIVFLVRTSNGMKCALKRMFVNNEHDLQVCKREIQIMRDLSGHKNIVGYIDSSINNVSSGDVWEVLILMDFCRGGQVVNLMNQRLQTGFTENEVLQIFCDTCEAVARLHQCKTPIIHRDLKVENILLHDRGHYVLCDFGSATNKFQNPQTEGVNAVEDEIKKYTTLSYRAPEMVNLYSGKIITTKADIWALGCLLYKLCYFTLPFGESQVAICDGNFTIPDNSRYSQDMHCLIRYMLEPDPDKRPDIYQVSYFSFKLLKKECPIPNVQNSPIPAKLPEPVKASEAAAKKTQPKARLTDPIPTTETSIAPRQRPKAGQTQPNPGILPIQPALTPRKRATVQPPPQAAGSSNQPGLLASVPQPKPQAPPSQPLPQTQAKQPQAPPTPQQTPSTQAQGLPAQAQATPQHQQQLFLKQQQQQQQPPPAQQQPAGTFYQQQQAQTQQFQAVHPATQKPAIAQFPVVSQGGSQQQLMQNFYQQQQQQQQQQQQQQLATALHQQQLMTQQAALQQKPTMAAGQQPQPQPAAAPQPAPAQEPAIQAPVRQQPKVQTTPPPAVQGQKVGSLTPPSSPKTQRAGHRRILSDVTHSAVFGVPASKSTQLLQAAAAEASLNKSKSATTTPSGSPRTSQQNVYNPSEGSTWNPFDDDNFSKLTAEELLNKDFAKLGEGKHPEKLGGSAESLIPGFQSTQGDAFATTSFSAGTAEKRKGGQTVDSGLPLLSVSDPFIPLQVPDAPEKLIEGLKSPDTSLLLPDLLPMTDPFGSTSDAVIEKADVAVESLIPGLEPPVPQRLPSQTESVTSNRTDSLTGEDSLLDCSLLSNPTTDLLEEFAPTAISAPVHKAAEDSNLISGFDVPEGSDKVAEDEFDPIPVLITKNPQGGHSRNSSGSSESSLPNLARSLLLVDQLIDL
T5 sequence (Q02763 whole entry Y897S): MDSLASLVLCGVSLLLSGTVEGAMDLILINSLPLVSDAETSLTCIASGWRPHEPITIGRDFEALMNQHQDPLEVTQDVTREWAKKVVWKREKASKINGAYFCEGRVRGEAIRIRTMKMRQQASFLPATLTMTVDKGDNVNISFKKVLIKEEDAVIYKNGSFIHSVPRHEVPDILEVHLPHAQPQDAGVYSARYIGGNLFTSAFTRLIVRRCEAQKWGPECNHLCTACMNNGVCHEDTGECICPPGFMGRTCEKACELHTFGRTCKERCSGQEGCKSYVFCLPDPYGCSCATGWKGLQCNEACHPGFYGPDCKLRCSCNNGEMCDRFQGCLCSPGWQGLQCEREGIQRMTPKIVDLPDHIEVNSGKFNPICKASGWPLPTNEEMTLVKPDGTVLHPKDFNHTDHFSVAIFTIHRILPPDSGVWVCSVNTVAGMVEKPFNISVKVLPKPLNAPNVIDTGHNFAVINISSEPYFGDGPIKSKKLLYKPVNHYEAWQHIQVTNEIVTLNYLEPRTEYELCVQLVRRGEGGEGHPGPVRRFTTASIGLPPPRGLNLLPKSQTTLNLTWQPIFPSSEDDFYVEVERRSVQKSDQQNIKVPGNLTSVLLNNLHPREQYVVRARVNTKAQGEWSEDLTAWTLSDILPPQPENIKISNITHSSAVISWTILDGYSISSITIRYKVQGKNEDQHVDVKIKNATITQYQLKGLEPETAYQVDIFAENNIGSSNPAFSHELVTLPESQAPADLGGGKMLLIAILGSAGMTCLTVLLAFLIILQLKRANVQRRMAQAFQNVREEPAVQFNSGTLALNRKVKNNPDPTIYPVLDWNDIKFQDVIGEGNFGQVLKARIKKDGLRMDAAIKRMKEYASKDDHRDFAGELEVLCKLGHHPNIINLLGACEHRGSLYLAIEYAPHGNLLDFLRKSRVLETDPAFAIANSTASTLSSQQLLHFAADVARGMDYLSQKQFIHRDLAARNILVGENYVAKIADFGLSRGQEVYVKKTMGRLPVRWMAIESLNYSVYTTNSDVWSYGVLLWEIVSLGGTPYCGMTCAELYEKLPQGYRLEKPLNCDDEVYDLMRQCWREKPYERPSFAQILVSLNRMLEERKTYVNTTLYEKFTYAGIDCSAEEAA

SMILES: Fc1ccc(CNc2ncnc3ccc(F)cc23)cc1 [5aa, 6-Fluoro-N-(4-fluorobenzyl)-4-Quinazolinamine]
- remaining activity at 10 µM (AAK1(h); [1]): 95%
- remaining activity at 10 µM (ALK1(h); [1]): 104%
- remaining activity at 10 µM (NEK11(h); [1]): 41%
- remaining activity at 10 µM (PDGFRα(h); [1]): 111%
- remaining activity at 10 µM (PKG1α(h); [1]): 91%
- remaining activity at 10 µM (Tie2(Y897S)(h); [1]): 88%
- remaining activity at 10 µM (WNK2(h); [1]): 77%

SMILES: Fc1ccc(CCNc2ncnc3ccc(F)cc23)cc1 [5as, 6-Fluoro-N-[2-(4-Fluorophenyl)Ethyl]-4-Quinazolinamine]
- remaining activity at 10 µM (AAK1(h); [2]): 81%
- remaining activity at 10 µM (ALK1(h); [2]): 85%
- remaining activity at 10 µM (NEK11(h); [2]): 71%
- remaining activity at 10 µM (PDGFRα(h); [2]): 90%
- remaining activity at 10 µM (PKG1α(h); [2]): 96%
- remaining activity at 10 µM (Tie2(Y897S)(h); [2]): 94%
- remaining activity at 10 µM (WNK2(h); [2]): 74%

SMILES: Fc1ccc2ncnc(NCCc3ccc(Cl)cc3)c2c1 [5at, N-[2-(4-Chlorophenyl)Ethyl]-6-Fluoro-4-Quinazolinamine]
- remaining activity at 10 µM (AAK1(h); [3]): 72%
- remaining activity at 10 µM (ALK1(h); [3]): 93%
- remaining activity at 10 µM (NEK11(h); [3]): 45%
- remaining activity at 10 µM (PDGFRα(h); [3]): 95%
- remaining activity at 10 µM (PKG1α(h); [3]): 93%
- remaining activity at 10 µM (Tie2(Y897S)(h); [3]): 85%
- remaining activity at 10 µM (WNK2(h); [3]): 76%

SMILES: COc1ccc2ncnc(Nc3cccc(F)c3)c2c1 [5ay, N-(3-Fluorophenyl)-6-Methoxy-4-Quinazolinamine]
- remaining activity at 10 µM (AAK1(h); [4]): 53%
- remaining activity at 10 µM (ALK1(h); [4]): 96%
- remaining activity at 10 µM (NEK11(h); [4]): 53%
- remaining activity at 10 µM (PDGFRα(h); [4]): 101%
- remaining activity at 10 µM (PKG1α(h); [4]): 95%
- remaining activity at 10 µM (Tie2(Y897S)(h); [4]): 78%
- remaining activity at 10 µM (WNK2(h); [4]): 71%
